Several values for one entry are separate records, joined by “and”; a condition that tells them apart may be missing. Identical values can stand only once. Counter-ions that a name gives are not always drawn.
Legend:
TNF-α in Th9 cells = test: Flow cytometry of TNF-α in Th9 cells in vitro (Figure 3F, 5I, 7C, S8M-N); assay type: cell-based, mouse; design: TNF expression in Th9 cells / TNF-α expression of Th9 cells: unit not given here; settings: for TNF expression in Th9 cells: Figure 7C, one per column (n = 4); for TNF (flow cytometric quantification): Figure 5I, (n = 5); for TNF-α expression of Th9 cells: Supplemental Figure 8N
Experimental: Naive CD4^+ T cells were isolated from the spleens of C57BL/6J or CD45.1^+ OT-II mice using the MojoSort Mouse CD4 Naive T Cell Isolation Kit (BioLegend, catalog 480040), following the manufacturer’s protocol. Purified cells were cultured in RPMI-1640 medium supplemented with 10% FBS, 1% penicillin-streptomycin, and 0.1% β-mercaptoethanol (Gibco, catalog 21985023).
T cell polarization was initiated under plate-bound anti-CD3 (2 μg/mL, clone 17A2, BioXCell, catalog BE0002) and soluble anti-CD28 (1 μg/mL, clone 37.51, BioXCell, catalog BE0015-1) stimulation, with the addition of cytokines and neutralizing antibodies specific to each subset. For Th9 cells, these included IL-4 (10 ng/mL, Peprotech, catalog 400-04), TGF-β (1 ng/mL, EPOTO Biotech, catalog HF-2021), anti–IL-12 (5 μg/mL, clone C17.8, BioXCell, catalog BE0051), and anti–IFN-γ (10 μg/mL, clone XMG1.2, BioXCell, catalog BE0055); for Th1 cells, these included IL-12 (10 ng/mL, GenScript, catalog Z03211-50) and anti–IL-4 (5 μg/mL, clone 11B11, BioXCell, catalog BE0045); for Th2 cells, these included IL-4 (50 ng/mL), anti–IFN-γ (20 μg /mL), anti–IL-12 (5 μg/mL), Th17 cells: IL-6 (20 ng/mL, EPOTO Biotech, catalog MF-1006), TGF-β (1 ng/mL), IL-1β (10 ng/mL, Peprotech, catalog AF-211-11B), anti–IFN-γ (10 μg/mL), anti–IL-12 (5 μg/mL), and anti–IL-4 (5 μg/mL); and for Tregs, these included TGF-β (3 ng/mL). After 3 days of initial culture, cells were either collected for downstream assays or continued in extended culture with refreshed cytokines to maintain lineage commitment.
(§1) Details regarding staining panels (human and mouse), reagents (including clones and catalog numbers), acquisition settings, compensation/controls, and analysis procedures are provided in Supplemental Methods.
BioLegend, Cat. No. 422301 or Mouse TruStain FcX™, BioLegend, Cat. No. 101319) for 10 minutes at 4°C. For surface marker detection, cells were stained with fluorochrome-conjugated monoclonal antibodies in 96-well V-bottom plates and incubated on ice for 30 minutes. After staining, cells were washed twice and resuspended in FACS buffer for analysis.
Prior to intracellular cytokine staining, cells were restimulated for 4 hours with PMA (Absin, Cat. No. abs9107), ionomycin (Sigma-Aldrich, Cat. No. I0634), and brefeldin A (MedChemExpress, Cat. No. HY-16592). For intracellular cytokine staining, cells were first surface-stained as described above, then fixed and permeabilized using the BD Cytofix/Cytoperm™ kit (BD Biosciences, Cat. No. 554714) according to the manufacturer ’s protocol. Intracellular proteins were stained with directly conjugated antibodies targeting IL-9, IL-17a, IL-4, IFN-γ, TNF-α, FOXP3, p-ZAP70, Perforin, and […]
Antibodies used for mouse samples included those against IL-9 (PE, clone RM9A4, Biolegend, Cat. No. 514104), IFN-γ (PE, clone XMG1.2, Biolegend, Cat. No.
Cat. No. 103138), CD4 (APC/Cy7, clone E-AB-F1353UJ, Elabscience, Cat. No.
AF18028), CD8α (PerCP/Cy5.5, clone E-AB-F1104UJ, Elabscience, Cat. No. […]
clone E-AB-F1187UH, Elabscience, Cat. No. AF19854), TNF-α (BV421, clone MP6-XT22, Biolegend, Cat. No. 506328), FOXP3 (PE, clone FJK-16s, eBioscience, Cat. No.
Perforin (APC, clone S16009A, Biolegend, Cat. No. 154303) and Granzyme B (APC, […]
clone QA16A02, Biolegend, Cat. No. 372203). […]

human Th9 cells = test: Human Th9 differentiation, IL-9 by flow cytometry (Figure 8A-B, S9A); assay type: cell-based; settings: for intracellular IL-9 expression in human Th9 cells: flow cytometry, Supplemental Figure 9A; for IL-9 production in human CD4⁺ T cells (flow cytometric analysis): Figure 8B, Th9-polarizing conditions, individual replicates, one per column (n = 4)
Experimental: Naive human CD4^+ T cells were isolated from PBMCs obtained from healthy donors using the EasySep Human Naive CD4^+ T Cell Isolation Kit II ([…] Technologies, catalog 17555), according to the manufacturer’s protocol. Isolated T cells were cultured in OptiVitro T Cell Medium SF (Excell Bio, catalog TE000-N022) supplemented with recombinant human IL-2 (100 U/mL, Novoprotein, catalog C013). T cell activation was achieved using plate-bound anti-CD3 (5 μg/mL) and soluble anti-CD28 antibodies (2 μg/mL).
For Th9 polarization, cultures were supplemented with IL-4 (10 ng/mL, PeproTech, catalog AF-200-04), TGF-β (1 ng/mL), and neutralizing anti–IFN-γ monoclonal antibody (10 μg/mL, clone B27, BioXcell, catalog BE0245). After 3 days of initial culture, cells were either collected for downstream assays or continued in extended culture with refreshed cytokines to maintain lineage commitment without antibodies. Th9 cells were collected at days 4, 5, and 6 for subsequent in vitro assays. For adoptive transfer studies, day 4–cultured Th9 cells were washed and prepared for intravenous injection.
as §1
MH9A4, Biolegend, Cat. No. 507605, PE/Cy7, clone MH9A4, Biolegend, Cat. No. […]
clone Mab11, Biolegend, Cat. No. 502908), Perforin (APC, clone dG9, Biolegend, Cat.
Flow cytometric acquisition was performed using a BD Fortessa or Cytek Aurora cytometer. Data were analyzed with FlowJo software (v10.8.1 or newer). Fluorescence compensation, isotype-matched controls, and fluorescence-minus-one (FMO) controls were applied as appropriate for multicolor panel validation. […]

[1] = single agent, 10 µM, individual replicates

CCCc1cc(-c2nc(-c3ccc(C)cc3)cs2)ccn1 [fatostatin, fatostatin hydrobromide, reference compound]
TNF expression in Th9 cells (TNF-α in Th9 cells; [1]): 2574 and 2507 and 2536 and 2484 | intracellular IL-9 expression in human Th9 cells (human Th9 cells; replicate 1): 23.3% | intracellular IL-9 expression in human Th9 cells (human Th9 cells; replicate 2): 24.1% | intracellular IL-9 expression in human Th9 cells (human Th9 cells; replicate 3): 23.7% | intracellular IL-9 expression in human Th9 cells (human Th9 cells; replicate 4): 23.5% | IL-9 production, human EpA-Th9 (human Th9 cells; with fatostatin, result in words): further augmented

anteiso-C15 Leu7 surfactin [EpA]
TNF-α production (TNF-α in Th9 cells; EpA + fatostatin, result in words): elevated in the combination group | MFI of TNF-α (TNF-α in Th9 cells; EpA-treated Th9 cells, individual replicates, n = 6): 2286 and 2180 and 2244 and 2177 and 2115 and 2169 | TNF (flow cytometric quantification) (TNF-α in Th9 cells; EpA + ERKin combination, individual replicates): 2696 and 2174 and 2281 and 2032 and 1920 | TNF (flow cytometric quantification) (TNF-α in Th9 cells; EpA + MEKin combination, individual replicates): 1415 and 1401 and 1417 and 1456 and 1441 | TNF (flow cytometric quantification) (TNF-α in Th9 cells; single agent, individual replicates): 2873 and 2973 and 3771 and 3384 and 2525 | TNF expression in Th9 cells (TNF-α in Th9 cells; EpA (10 µM) + Fatostatin (10 µM), individual replicates): 3879 and 3735 and 3908 and 3188 | TNF expression in Th9 cells (TNF-α in Th9 cells; [1]): 2951 and 2896 and 2950 and 2779 | TNF-α expression of Th9 cells (TNF-α in Th9 cells; MigR1, replicate 1): 2796 | TNF-α expression of Th9 cells (TNF-α in Th9 cells; MigR1, replicate 2): 2837 | TNF-α expression of Th9 cells (TNF-α in Th9 cells; MigR1, replicate 3): 2787 | TNF-α expression of Th9 cells (TNF-α in Th9 cells; SREBP1, replicate 1): 2060 | TNF-α expression of Th9 cells (TNF-α in Th9 cells; SREBP1, replicate 2): 1962 | TNF-α expression of Th9 cells (TNF-α in Th9 cells; SREBP1, replicate 3): 1934 | EpA-induced TNF-α increase (protein) upon SREBP1 overexpression (TNF-α in Th9 cells; result in words): markedly suppressed | IL-9 production in human CD4⁺ T cells (flow cytometric analysis) (human Th9 cells; Day5): 43.3 and 42.8 and 42.9 and 42 | IL-9 production in human CD4⁺ T cells (flow cytometric analysis) (human Th9 cells; Day6): 34.5 and 32.5 and 32.7 and 34.1 | IL-9 expression, human Th9 (human Th9 cells; day 5 to day 6, result in words): significantly elevated IL-9 expression | intracellular IL-9 expression in human Th9 cells (human Th9 cells; replicate 1): 22% | intracellular IL-9 expression in human Th9 cells (human Th9 cells; replicate 2): 24.8% | intracellular IL-9 expression in human Th9 cells (human Th9 cells; replicate 3): 22.1% | intracellular IL-9 expression in human Th9 cells (human Th9 cells; replicate 4): 24.3%

— paper PMC12867150, “A fungi-derived cyclic peptide enhances Th9-mediated antitumor immunity by targeting ZAP70 and SREBP1” (The Journal of Clinical Investigation, 2025)
